The term IC50 denotes the point on the concentration scale where inhibition reaches its midpoint. Higher therefore signals weaker potency.

Experimental findings from patent US7329749B2, “Piperazinylcarbonylquinolines and -isoquinolines” (Merck Patent Gesellschaft, priority 2001, dated 2008) are described below.

Common to all, as to type: binding
One experiment deals with T1, 5-HT1A receptor (Homo sapiens, UniProt P08908).
T1 sequence (P08908 1-422): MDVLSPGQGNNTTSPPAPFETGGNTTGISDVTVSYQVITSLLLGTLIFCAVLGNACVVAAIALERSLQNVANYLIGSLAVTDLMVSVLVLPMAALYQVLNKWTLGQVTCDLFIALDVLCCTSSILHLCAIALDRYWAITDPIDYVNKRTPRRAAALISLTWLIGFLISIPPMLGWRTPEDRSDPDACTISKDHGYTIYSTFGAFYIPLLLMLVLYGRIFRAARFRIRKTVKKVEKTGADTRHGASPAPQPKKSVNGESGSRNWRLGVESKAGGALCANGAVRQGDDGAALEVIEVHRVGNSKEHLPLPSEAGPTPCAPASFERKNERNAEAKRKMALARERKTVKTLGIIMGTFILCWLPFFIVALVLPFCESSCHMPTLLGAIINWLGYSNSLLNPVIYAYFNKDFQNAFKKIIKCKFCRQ
Briefly: IC50 at the 5-HT1A receptor.

The target in the next experiment is 5-HT1D receptor (Homo sapiens, UniProt P28221). Briefly: IC50 at the 5-HT1D receptor.
Another experiment has as its target 5-HT2C receptor (Homo sapiens, UniProt P28335). Briefly: IC50 at the 5-HT2C receptor.
The target in a further experiment is D2 receptor (Homo sapiens, UniProt P14416). Description: IC50 at the D2 receptor.
For another experiment, the target named is T2, 5-HT2A receptor (Rattus norvegicus, UniProt P14842).
T2 construct: Frontal rat cortex is homogenised in ice-cold buffer; from tissue; host or cells: rat frontal cortex homogenate
Briefly: affinity to 5-HT2A receptors, [3H]ketanserine displacement (Example A1). The procedure: For in-vitro detection of the affinity to 5-HT2A receptors, the following test (Example A1), for example, can be used. The 5-HT2A receptors are exposed both to [^3H]ketanserine (a substance which is known for its affinity to the receptor) and also to the test compound. The decrease in the affinity of [^3H]ketanserine to the receptor is an indication of the affinity of the test substance to the 5-HT2A receptor. The detection is carried out analogously to the description by J. E. Leysen et al., Molecular Pharmacology, 1982, 21: 301-314, or as also described, for example, in EP 0320983.
Preparation of a suspension of 5-HT2A receptors: Frontal rat cortex is homogenised in ice-cold buffer. The homogenate is centrifuged at 4° C. and 50,000×for 10 minutes. The pellet is re-suspended in 2.5 ml of ice-cold tris buffer, made up with 10 ml of additional buffer and centrifuged as described. The pellet is then re-suspended in buffer and diluted to give a homogenate which comprises 60 mg of material/ml. 0.1 ml of the suspension, 100 μl of a 5 nM solution of [^3H]ketanserine, 100 μl of a solution of the test compound (concentration in the range from 10^−5 to 10^−10 mol per litre) are introduced into the incubation tubes and made up to 1 ml with buffer. The tubes are incubated at 37° C. for 15 minutes. […] The filters are analysed by liquid scintillation spectrometry in 8 ml of Triton-X scintillator liquid.

The next experiment concerns the target 5-HT1B receptor (Homo sapiens, UniProt P28222). Briefly: IC50 at the 5-HT1B receptor.

T2 sequence (P14842 whole entry): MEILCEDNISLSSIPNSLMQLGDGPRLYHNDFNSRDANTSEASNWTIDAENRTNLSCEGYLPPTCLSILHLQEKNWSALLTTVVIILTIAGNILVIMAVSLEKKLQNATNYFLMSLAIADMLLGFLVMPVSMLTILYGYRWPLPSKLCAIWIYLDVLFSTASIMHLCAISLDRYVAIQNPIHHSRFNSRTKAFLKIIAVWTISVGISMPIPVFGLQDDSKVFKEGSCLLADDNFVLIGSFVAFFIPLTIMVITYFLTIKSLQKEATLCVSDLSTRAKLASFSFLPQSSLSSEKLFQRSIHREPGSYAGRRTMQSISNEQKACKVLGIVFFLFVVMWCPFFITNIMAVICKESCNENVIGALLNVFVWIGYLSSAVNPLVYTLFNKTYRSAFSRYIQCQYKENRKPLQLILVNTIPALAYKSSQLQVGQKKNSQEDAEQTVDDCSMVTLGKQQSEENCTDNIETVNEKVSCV
5-HT1B receptor, sequence (P28222 whole entry): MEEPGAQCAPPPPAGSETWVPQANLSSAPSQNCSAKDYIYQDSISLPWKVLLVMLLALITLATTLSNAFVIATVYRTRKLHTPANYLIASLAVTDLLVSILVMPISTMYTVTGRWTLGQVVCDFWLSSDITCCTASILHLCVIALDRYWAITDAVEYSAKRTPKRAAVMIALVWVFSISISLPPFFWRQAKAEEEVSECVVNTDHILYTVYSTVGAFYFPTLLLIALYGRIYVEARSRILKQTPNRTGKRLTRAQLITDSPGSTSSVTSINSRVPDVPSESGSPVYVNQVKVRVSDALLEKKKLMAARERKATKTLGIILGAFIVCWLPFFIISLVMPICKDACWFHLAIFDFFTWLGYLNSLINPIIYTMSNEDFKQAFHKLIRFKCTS
5-HT1D receptor, sequence (P28221 whole entry): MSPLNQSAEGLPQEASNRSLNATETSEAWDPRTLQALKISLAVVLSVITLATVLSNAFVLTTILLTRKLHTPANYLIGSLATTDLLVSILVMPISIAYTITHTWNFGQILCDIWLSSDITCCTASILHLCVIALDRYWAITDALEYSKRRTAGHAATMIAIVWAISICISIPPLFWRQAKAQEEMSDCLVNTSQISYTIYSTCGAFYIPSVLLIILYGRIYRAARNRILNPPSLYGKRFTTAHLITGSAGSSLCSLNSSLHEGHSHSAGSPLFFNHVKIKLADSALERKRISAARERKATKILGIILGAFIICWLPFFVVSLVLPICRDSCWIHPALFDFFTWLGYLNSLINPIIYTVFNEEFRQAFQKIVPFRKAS
D2 receptor, sequence (P14416 whole entry): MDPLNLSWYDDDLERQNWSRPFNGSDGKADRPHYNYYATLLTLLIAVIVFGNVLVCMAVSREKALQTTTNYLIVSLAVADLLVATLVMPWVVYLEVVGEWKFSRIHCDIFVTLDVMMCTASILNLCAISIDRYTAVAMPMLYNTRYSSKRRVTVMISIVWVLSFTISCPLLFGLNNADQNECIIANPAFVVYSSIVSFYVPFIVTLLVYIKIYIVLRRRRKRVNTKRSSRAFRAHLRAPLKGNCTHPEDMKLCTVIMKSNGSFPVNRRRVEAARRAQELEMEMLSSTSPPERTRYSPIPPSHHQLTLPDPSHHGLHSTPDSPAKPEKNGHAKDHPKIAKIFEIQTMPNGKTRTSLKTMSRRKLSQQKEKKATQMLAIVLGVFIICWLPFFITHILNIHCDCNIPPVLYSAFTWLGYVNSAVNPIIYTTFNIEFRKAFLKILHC
5-HT2C receptor, sequence (P28335 33-458): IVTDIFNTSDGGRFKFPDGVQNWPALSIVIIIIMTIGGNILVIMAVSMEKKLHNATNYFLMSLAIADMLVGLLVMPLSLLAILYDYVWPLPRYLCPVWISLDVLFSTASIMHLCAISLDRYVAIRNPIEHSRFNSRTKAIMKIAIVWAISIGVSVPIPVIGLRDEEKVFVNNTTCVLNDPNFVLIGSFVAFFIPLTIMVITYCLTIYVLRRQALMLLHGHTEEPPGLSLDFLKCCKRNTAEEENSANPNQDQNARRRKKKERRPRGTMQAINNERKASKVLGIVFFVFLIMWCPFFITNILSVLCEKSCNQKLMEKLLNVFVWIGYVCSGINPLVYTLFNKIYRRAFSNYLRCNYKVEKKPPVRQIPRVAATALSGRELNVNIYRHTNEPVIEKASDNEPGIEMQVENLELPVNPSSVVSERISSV

As to `O=C(c1nccc2ccccc12)N1CCN(CCc2ccc(F)cc2)CC1` [Example 1, {4-[2-(4-fluorophenyl)ethyl]piperazin-1-yl}isoquinolin-1-ylmethanone], the IC50 is over 1000 nM against 5-HT1A receptor; over 1000 nM at 5-HT1D receptor; over 1000 nM on 5-HT2C receptor; over 1000 nM against D2 receptor; 1 nM at 5-HT2A receptor; over 1000 nM at 5-HT1B receptor. For the same compound, on 5-HT2A receptor (5-HT2A versus 5-HT2C, 5-HT1A, 5-HT1B, 5-HT1D and D2 receptors), the “factor by which the affinities differ” value is “greater than 1000”.
